Reference: US20040022726A1, “Methods and compositions for intravesical therapy of bladder cancer” (priority 2002, published 2004)
Numbered stars: 1 amine (or outer) side, 2 acyl side, 3 side chain; on linkers, the order of the positions; unused ones are H or OH. Square brackets hold non-standard residues; d marks the D form. Side chains are listed from the residue outwards. Peptide text beside a SMILES is read from it. * marks the point of attachment. DOTA = O=C(O)CN1CCN(CC(=O)O)CCN(CC(=O)*)CCN(CC(=O)O)CC1; NH(2-(imidazol-4-yl)ethyl) = c1ncc(CCN*)[nH]1; Suc = O=C(CCC(=O)[*:2])[*:1]

System: superficial cancer of the urinary bladder
Conditions: human, in vivo
Experimental: Antibody-Mediated Radioimmunotherapy Using a Beta-Emitting Radionuclide A patient with a superficial cancer of the urinary bladder is treated with a 1:1 molar mixture of the bispecific antibody hMN-14×679-F(ab′)2 [anti-CEA×anti-HSG] of example 1, and the carrier-free Y-90-IMP 241 bivalent hapten of example 3, above. The premixed radioimmunotherapy agent is introduced into the bladder via a urethral catheter inserted under local anesthetic. Prior to injection, the bladder is drained completely, and 70 mL of the complex in 70 mL 0.9% NaCl (comprising 20 mg of the bispecific antibody and 10 mCi of Y-90 conjugated to the bivalent hapten) are instilled and allowed 90 minutes to localize by binding to tumor tissue. The unbound radiolabeled is bispecific antibody mixture is then allowed to evacuate the bladder through the urethra, by washing out the bladder using 50 mL 0.9% NaCl, leaving the remaining administered radioactivity bound substantially only to tumor cells. Seventy-two hours later, the patient is taken to the operating room, where biopsies of macroscopically normal urothelium and bladder tumor are made. The urothelium is separated from the underlying mucularis layer and assayed in a beta scintillating counter to allow measurement of radioactivity in the tumor and in the normal tissue, and then the preparations were fixed in formalin for histopathological evaluation. […]

## NC(=O)[C@H](CCCCNC(=O)CNC(=O)CCC(=O)NCCc1cnc[nH]1)NC(=O)[C@@H](Cc1ccc(O)cc1)NC(=O)[C@H](CCCCNC(=O)CNC(=O)CCC(=O)NCCc1cnc[nH]1)NC(=O)[C@H](Cc1ccccc1)NC(=O)CN1CCN(CC(=O)O)CCN(CC(=O)O)CCN(CC(=O)O)CC1 [Y-90-IMP 241, metal not drawn] ({DOTA}-FK([Gly-Suc-NH(2-(imidazol-4-yl)ethyl)])[dY]K([Gly-Suc-NH(2-(imidazol-4-yl)ethyl)])-NH2)
  histology of normal urothelium: relatively intact normal urothelium
